Data as given in patent US10766866B2, “Deterrents for arthropods and marine organisms” (priority 2017, dated 2020).
Like-named read-outs stand apart in the source and are kept apart here.

Experiments:
[1] = system: Anopheles gambiae mosquito isoform A OctR (AgAOctR); assay: OctR activation, change in intracellular calcium; type: cell-based; conditions: for selectivity Ki(Hsα2-AR)/EC50(OctR): AgAOctR over Homo sapien α2-AR subtypes
Description: (§1) Functional expression of cloned arthropod OctRs and human α2-ARs: The cDNAs for α-like OctRs from different arthropod species (e.g., Anopheles gambiae, Aedes aegypti, Periplaneta americana, Drosophila melanogaster, Ixodes scapularis, Balanus improvises) and for α2-AR subtypes from humans were individually subcloned into mammalian expression vectors. These plasmids, which harbor a resistance gene for the selection drug G418 and the cDNA sequence for the receptor of interest, were individually transfected into mammalian cells using a calcium phosphate precipitation method. G418 selection was then employed to generated stable clonal cell lines. Utilizing rapid filtration radioligand binding techniques, the cell surface density of receptor expression of the individual clonal cell lines was determined at equilibrium and those with similar high levels of expression were selected for further experiments. Briefly, binding conditions were 50 mM Tris binding buffer pH 7.4 at 25° C. and an ice-cold wash buffer 10 mM Tris-HCl, pH 7.4). The radioligand was [3H]rauwolscine and non-specific binding was determined in the presence of 10 μM atipamezole. Following the addition of membranes prepared from the clonal cell lines, samples were mixed and allowed 2 hr. to reach equilibrium before rapid filtration and washing through 0.3% PEI-treated GF/C filters. The radioactivity remaining on the filters was quantified by scintillation counting. Receptor density (Bmax) was back calculated knowing the specific activity of the radioligand and applying the equation for a square hyperbola model: Bmax=(Y·(KD+X))/X, where Y is [specifically bound radioligand] and X=[radio ligand concentration]. The affinity (KD) for the radioligand for each receptor was determined in separate saturation isotherm binding experiments using the same binding conditions as describe above.
(§2) Measurement of OctR activation by measuring changes in intracellular calcium: Activation of arthropod α-like OctRs increases intracellular calcium via a Gq-coupling mechanism. This involves activation of phospholipase C leading to an increase in intracellular inositol triphosphate (IP3) which then activates IP3-gated calcium channels in the endoplasmic reticulum causing a transient rise in intracellular calcium. These changes in intracellular calcium upon OctR activation were measured by loading cells with intracellular calcium sensitive dye CALCIUM 6QR and reading the change in calcium-induced fluorescent signal over time on a FlexStation 3 microplate reader.

[2] = target: T1, AgAOctR (Anopheles octopamine receptor isoform A), cloned α-like OctR (Anopheles gambiae, UniProt Q7PRZ8); assay: OctR activation: change in intracellular calcium (CALCIUM 6QR dye, FlexStation 3) in stably transfected mammalian cells; type: cell-based; conditions: agonist
T1 construct: Gq calcium readout
T1 sequence (Q7PRZ8 1-592): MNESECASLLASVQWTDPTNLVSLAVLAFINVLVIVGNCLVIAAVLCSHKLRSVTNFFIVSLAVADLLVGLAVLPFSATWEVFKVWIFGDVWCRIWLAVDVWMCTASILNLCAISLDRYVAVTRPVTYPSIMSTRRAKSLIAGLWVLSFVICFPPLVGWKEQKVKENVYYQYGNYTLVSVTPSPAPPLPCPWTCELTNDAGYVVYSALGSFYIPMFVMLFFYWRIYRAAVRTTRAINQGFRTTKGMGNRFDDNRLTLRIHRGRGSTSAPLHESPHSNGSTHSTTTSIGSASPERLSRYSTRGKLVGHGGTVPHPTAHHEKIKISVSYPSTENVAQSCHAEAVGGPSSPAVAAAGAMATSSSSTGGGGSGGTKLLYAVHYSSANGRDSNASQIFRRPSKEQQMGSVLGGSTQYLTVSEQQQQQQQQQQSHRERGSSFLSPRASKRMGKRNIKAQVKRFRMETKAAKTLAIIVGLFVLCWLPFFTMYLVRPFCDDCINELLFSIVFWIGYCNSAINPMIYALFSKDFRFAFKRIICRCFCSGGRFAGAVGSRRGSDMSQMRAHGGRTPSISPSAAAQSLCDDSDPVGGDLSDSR
Description: as §1, §2

[3] = system: IsTOctR (Ixodes octopamine receptor), cloned α-like OctR; assay: as above; type: cell-based, Ixodes scapularis
Description: as §1, §2

[4] = target: T2, Hsα2A-AR (human α2A adrenergic receptor) (Homo sapiens, UniProt P08913); assay: [3H]rauwolscine competition radioligand binding, membranes of clonal mammalian cell lines; conditions: 50 mM Tris pH 7.4, 25° C., 2 hr, Cheng-Prusoff
T2 construct: expressed in transfected cells; membranes
T2 sequence (P08913 whole entry): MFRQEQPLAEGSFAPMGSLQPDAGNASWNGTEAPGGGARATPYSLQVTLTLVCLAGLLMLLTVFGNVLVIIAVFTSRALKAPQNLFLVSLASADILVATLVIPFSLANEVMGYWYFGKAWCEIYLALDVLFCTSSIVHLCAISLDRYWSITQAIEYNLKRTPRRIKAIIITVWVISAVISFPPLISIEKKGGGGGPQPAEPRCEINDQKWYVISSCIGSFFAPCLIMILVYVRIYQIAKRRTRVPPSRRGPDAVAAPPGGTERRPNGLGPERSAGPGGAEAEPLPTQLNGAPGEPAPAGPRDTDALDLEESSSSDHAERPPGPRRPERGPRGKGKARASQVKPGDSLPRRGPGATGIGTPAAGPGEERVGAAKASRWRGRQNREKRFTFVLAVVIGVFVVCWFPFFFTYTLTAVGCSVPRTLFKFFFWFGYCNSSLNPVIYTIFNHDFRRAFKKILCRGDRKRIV
Description: as §1
(§3) Measurement of compound affinities by competition radioligand binding: Affinities (Ki) for compounds were determined by [3H]rauwolscine competition binding using the same binding conditions as described above. The Ki values were calculated from IC50 values using the Cheng-Prusoff equation.

[5] = target: T3, Hsα2C-AR (human α2C adrenergic receptor) (Homo sapiens, UniProt P18825); assay: as above; conditions: 50 mM Tris pH 7.4, 25° C., 2 hr, Cheng-Prusoff
T3 construct: expressed in transfected cells
T3 sequence (P18825 1-462): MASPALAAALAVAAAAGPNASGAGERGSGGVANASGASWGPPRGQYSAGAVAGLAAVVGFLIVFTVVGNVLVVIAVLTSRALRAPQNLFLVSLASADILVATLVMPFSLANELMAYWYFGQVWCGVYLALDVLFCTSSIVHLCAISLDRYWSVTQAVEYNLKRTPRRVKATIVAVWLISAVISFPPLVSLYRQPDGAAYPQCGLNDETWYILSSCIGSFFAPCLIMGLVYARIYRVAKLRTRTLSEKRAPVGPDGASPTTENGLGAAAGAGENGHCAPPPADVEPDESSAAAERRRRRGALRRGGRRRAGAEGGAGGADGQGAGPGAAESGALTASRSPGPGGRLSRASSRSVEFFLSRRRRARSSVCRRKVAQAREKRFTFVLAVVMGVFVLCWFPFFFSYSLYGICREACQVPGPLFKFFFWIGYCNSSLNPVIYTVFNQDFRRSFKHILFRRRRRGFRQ
Description: as §1, §3

[6] = system: Aedes aegypti α-like OctR (AeOctR); assay: OctR activation, change in intracellular calcium; type: cell-based; conditions: 100 μM; normalized to octopamine at a supersaturating concentration; FIG. 1B
Description: as §1, §2

[7] = target: T4, Drosophila melanogaster α-like OctR (DmOctR) (Drosophila melanogaster, UniProt Q7JQF1); assay: OctR activation, change in intracellular calcium; type: cell-based; conditions: 100 μM; normalized to octopamine at a supersaturating concentration; FIG. 1A
T4 construct: expressed in transfected cells
T4 sequence (Q7JQF1 1-645): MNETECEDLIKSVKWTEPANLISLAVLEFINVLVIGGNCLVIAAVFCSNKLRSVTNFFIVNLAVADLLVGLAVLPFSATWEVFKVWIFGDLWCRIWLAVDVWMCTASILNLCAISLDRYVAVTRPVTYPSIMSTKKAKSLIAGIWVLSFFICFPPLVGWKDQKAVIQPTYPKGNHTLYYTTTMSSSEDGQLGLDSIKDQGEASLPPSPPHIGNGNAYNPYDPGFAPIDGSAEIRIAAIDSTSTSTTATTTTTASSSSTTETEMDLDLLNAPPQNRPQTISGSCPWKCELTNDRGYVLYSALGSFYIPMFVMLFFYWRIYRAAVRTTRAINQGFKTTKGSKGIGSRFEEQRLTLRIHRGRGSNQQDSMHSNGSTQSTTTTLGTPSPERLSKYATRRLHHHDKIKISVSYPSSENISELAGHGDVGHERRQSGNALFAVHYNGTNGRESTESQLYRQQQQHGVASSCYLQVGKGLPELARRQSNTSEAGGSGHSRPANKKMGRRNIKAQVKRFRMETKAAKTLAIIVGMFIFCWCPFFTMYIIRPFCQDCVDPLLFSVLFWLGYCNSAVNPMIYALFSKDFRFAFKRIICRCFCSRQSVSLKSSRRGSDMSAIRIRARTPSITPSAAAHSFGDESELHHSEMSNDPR
Description: as §1, §2

[8] = system: Ixodes scapularis tick OctR (IsTOctR); assay: OctR activation, change in intracellular calcium; type: cell-based; conditions: 100 μM; normalized to octopamine at a supersaturating concentration; FIG. 1C
Description: as §1, §2

[9] = system: Periplaneta americana OctR (PaOctR); assay: OctR activation, change in intracellular calcium; type: cell-based; conditions: 100 μM; normalized to octopamine at a supersaturating concentration; FIG. 1D
Description: as §1, §2

[10] = system: Aedes mosquito; assay: Protection against mosquito biting and toxicity to mosquitoes; type: in vivo; conditions: DEET: at the lowest concentration that produces maximal protection against biting (LC50)
[11] = target: T5, DmOctR (Drosophila octopamine receptor), cloned α-like OctR (Drosophila melanogaster, UniProt Q7JQF1); assay: OctR activation: change in intracellular calcium (CALCIUM 6QR dye, FlexStation 3) in stably transfected mammalian cells; type: cell-based; conditions: agonist
T5 construct: Gq calcium readout
T5 sequence (Q7JQF1 1-645): T4 sequence (Q7JQF1 1-645)
Description: as §1, §2

[12] = target: T6, PaOctR (Periplaneta octopamine receptor), cloned α-like OctR (Periplaneta americana, UniProt Q7YWB7); assay: as above; type: cell-based; conditions: agonist
T6 construct: Gq calcium readout
T6 sequence (Q7YWB7 1-628): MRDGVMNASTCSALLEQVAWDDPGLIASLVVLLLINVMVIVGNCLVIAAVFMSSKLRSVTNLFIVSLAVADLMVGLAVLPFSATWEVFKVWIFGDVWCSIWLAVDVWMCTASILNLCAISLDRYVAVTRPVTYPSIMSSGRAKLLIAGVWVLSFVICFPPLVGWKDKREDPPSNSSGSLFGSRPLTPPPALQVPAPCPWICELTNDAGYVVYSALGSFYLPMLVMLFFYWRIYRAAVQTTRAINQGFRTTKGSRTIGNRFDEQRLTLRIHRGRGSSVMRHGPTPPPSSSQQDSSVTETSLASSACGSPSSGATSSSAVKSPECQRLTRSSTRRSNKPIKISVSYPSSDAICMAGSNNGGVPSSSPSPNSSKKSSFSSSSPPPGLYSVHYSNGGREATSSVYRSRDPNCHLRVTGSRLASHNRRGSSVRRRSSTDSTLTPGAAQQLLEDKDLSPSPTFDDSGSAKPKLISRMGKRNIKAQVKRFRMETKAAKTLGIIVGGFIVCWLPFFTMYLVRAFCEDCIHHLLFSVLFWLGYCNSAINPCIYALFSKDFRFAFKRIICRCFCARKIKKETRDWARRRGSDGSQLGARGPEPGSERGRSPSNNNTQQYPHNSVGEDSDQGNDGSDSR
Description: as §1, §2

[13] = system: Balanus OctR (BiOctR); assay: OctR activation, change in intracellular calcium; type: cell-based, Balanus improvises; conditions: 100 μM; compared with octopamine
Description: as §1, with “Briefly, binding conditions were 50 mM Tris binding buffer pH 7.4 at 25° C. and an ice-cold wash buffer 10 mM Tris-HCl, pH 7.4).” left out, “Following the addition of membranes prepared from the clonal cell lines, samples were mixed and allowed 2 hr. to reach equilibrium before rapid filtration and washing through 0.3% PEI-treated GF/C filters.” left out, “The affinity (KD) for the radioligand for each receptor was determined in separate saturation isotherm binding experiments using the same binding conditions as describe above.” left out

[14] = system: AeOctR (Aedes octopamine receptor), cloned α-like OctR; assay: OctR activation: change in intracellular calcium (CALCIUM 6QR dye, FlexStation 3) in stably transfected mammalian cells; type: cell-based, Aedes aegypti; conditions: agonist
Description: as §1, §2

[15] = agonist, read-out: IsTOctR (Ixodes octopamine receptor) EC50

Structure (SMILES)	selectivity Ki(Hsα2-AR)/EC50(OctR) [1]	EC50 [2] [nM]	EC50 [3, 15] [nM]	Ki [4] [nM]	Ki [5] [nM]	agonist response (change in intracellular calcium) relative to octopamine [6]	agonist response (change in intracellular calcium) relative to octopamine [7]	other results
Cc1cccc(C(O)c2cnc[nH]2)c1 (centres unmarked) [AZ1410]	highly selective	38 ± 16	185 ± 92	4200 ± 1760	9440 ± 6470	–	–	–
CC1CCC(C(C)(C)O)C(O)C1 (centres unmarked) [PMD, para-menthane-3,8-diol]	–	–	–	–	–	< 25%	< 25%	–
C=C(c1cnc[nH]1)c1cccc(C(F)(F)F)c1C [AZ1415]	highly selective	0.58 ± 0.61	18 ± 6.9	–	–	–	–	efficacy (full/partial agonist) ([1]; in words, FIGS. 9-12): full efficacy; potency (EC50) ([1]; in words, FIGS. 9-12): high potency
CCN(CC)C(=O)c1cccc(C)c1 [DEET, N,N-diethyl-meta-toluamide]	–	–	–	–	–	did not produce a significant agonist response	did not produce a significant agonist response	agonist response (change in intracellular calcium) relative to octopamine [8]: did not produce a significant agonist response; agonist response (change in intracellular calcium) relative to octopamine [9]: did not produce a significant agonist response; toxicity to mosquitoes [10]: lethal in half the mosquitoes
Cc1c(C(O)c2cnc[nH]2)cccc1C(F)(F)F (centres unmarked) [AZ1399]	highly selective	11 ± 3.7	43 ± 11	3210 ± 672	2110 ± 385	–	–	EC50 [11]: 367 ± 237 nM; EC50 [12]: 82 ± 25 nM
CCCCN(CCC(=O)OCC)C(C)=O [IR3535, ethyl butylacetylaminopropionate]	–	–	–	–	–	did not produce a significant agonist response	did not produce a significant agonist response	agonist response (change in intracellular calcium) relative to octopamine [8]: did not produce a significant agonist response; agonist response (change in intracellular calcium) relative to octopamine [9]: did not produce a significant agonist response
C/C=C(/c1cnc[nH]1)c1cccc(C)c1C [AZ1440 E-isomer]	–	10 ± 4.7	–	–	–	–	–	EC50 ([3]; read-out: IsTOctR (Ixodes octopamine receptor) EC50, agonist): 90 ± 25 nM
C/C=C(\c1cnc[nH]1)c1cccc(C)c1C [AZ1409 Z-isomer]	–	58 ± 41	969 ± 358	–	–	–	–	–
CCC(C)OC(=O)N1CCCCC1CCO (centres unmarked) [picaridin, 1-(1-methylpropoxycarbonyl)-2-(2-hydroxyethyl)piperidine]	–	–	–	–	–	did not produce a significant agonist response	did not produce a significant agonist response	agonist response (change in intracellular calcium) relative to octopamine [8]: did not produce a significant agonist response; agonist response (change in intracellular calcium) relative to octopamine [9]: did not produce a significant agonist response; agonist response (change in intracellular calcium) relative to octopamine [13]: significant agonist responses
COC(c1cnc[nH]1)c1cccc(C)c1C (centres unmarked) [AZ1400]	highly selective	2.3 ± 0.69	35 ± 7.4	1310 ± 247	973 ± 146	–	–	EC50 [11]: 846 ± 440 nM; EC50 [12]: 85 ± 34 nM; EC50 [14]: > 20000 nM
Cc1cccc(C(O)c2cnc[nH]2)c1C (centres unmarked) [AZ0024]	highly selective	0.42 ± 0.13	4.4 ± 2.9	356 ± 77	558 ± 85	–	–	EC50 [11]: 57 ± 13 nM; EC50 [12]: 5.9 ± 2.9 nM; EC50 [14]: 627 ± 274 nM
